Patent US20060240014A1, “Methods and compounds for the treatment of vascular stenosis” (Beth Israel Deaconess Medical Center, priority 2003, published 2006)
Counter-ions that a name gives are not always drawn.

Test system: human aortic vascular smooth muscle cells (HASOM cells)
Assay: hPDGF-BB induced migration of human aortic vascular smooth muscle cells (Boyden chamber)
Format: cell-based
Details: 20 ng/ml hPDGF-BB, 48 hours drug pre-incubation, 12 hours migration, dose dependent (FIG. 1)
Experimental: Drug concentrations for G are in ng/mL and for R are in pg/mL. The first lane has no PDGF added and the first two lanes have no drug compounds added. The results are expressed as means±S.E.M. of triplicate readings.
In vitro studies were performed to examine the dose response of Gleevec and rapamycin on human aortic vascular smooth muscle cells (HASOM cells). Cell migration was measured using a 24-well Boyden-chamber (Corning Costar Corp, Cambridge, Mass.). […] These membranes were coated with 0.1% gelatin for eight hours, then aspirated and allowed to dry for two hours. The cells were allowed to grow to 70% confluence and then treated with media containing 1% fetal calf serum and drug compounds (Gleevec alone, rapamycin alone and Gleevec and rapamycin together at the concentrations indicated in FIG. 1) for 48 hours prior to the migration assay. […] The cells were harvested in 0.05% trypsin, resuspended in M-199 media, and seeded on the coated membrane at a concentration of 4000 cells per well with Gleevec and/or rapamycin. The M-199 media containing 0.5% BSA and 20 ng/ml human PDGF-B (hPDGF-BB) was placed in the bottom Boyden chamber. Cells were incubated in 5% CO2 at 37° C. for 12 hours and the cells lying on the upper surface of the membrane were scraped. […] Cell migration was quantified by counting the cells in five random high-power fields on the lower surface of the membrane. […]

SMILES: Cc1ccc(NC(=O)c2ccc(CN3CCN(C)CC3)cc2)cc1Nc1nccc(-c2cccnc2)n1 [Gleevec, imatinib mesylate]
- inhibition of PDGF induced migration of HASOM cells: potently inhibited
